Test system: 633275-114-R-J1-PDC complex spheroids, viability
Test: Anticancer human tumor 633275-114-R-J1-PDC patient-derived endometrial adenocarcinoma cell line growth inhibition [GQUAD]
Details: for IC50: curve of first compound; for viability, T/C: stronger effect = lower value
Procedure, shortened: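 Tumor cells were grown as complex spheroids with HUVEC endothelial cells and mesenchymal stem cells as stroma. G-quadruplex stabilizers were combined with targeted agents over half-log dilutions from near the clinical Cmax, or from 10 microM.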

[1] = second compound 0.0316 µM, first compound 0.0316 µM
[2] = second compound 0.0316 µM, first compound 0.1 µM
[3] = second compound 0.0316 µM, first compound 0.316 µM
[4] = second compound 0.0316 µM, first compound 1 µM
[5] = second compound 0.0316 µM, first compound 3.16 µM
[6] = second compound 0.0316 µM, first compound 10 µM
[7] = second compound 0.1 µM, first compound 0.0316 µM
[8] = second compound 0.1 µM, first compound 0.1 µM
[9] = second compound 0.1 µM, first compound 0.316 µM
[10] = second compound 0.1 µM, first compound 1 µM
[11] = second compound 0.1 µM, first compound 3.16 µM
[12] = second compound 0.1 µM, first compound 10 µM
[13] = second compound 0.316 µM, first compound 0.0316 µM
[14] = second compound 0.316 µM, first compound 0.1 µM
[15] = second compound 0.316 µM, first compound 0.316 µM
[16] = second compound 0.316 µM, first compound 1 µM
[17] = second compound 0.316 µM, first compound 3.16 µM
[18] = second compound 0.316 µM, first compound 10 µM
[19] = second compound 1 µM, first compound 0.0316 µM
[20] = second compound 1 µM, first compound 0.1 µM
[21] = second compound 1 µM, first compound 0.316 µM
[22] = second compound 1 µM, first compound 1 µM
[23] = second compound 1 µM, first compound 3.16 µM
[24] = second compound 1 µM, first compound 10 µM
[25] = second compound 3.16 µM, first compound 0.0316 µM
[26] = second compound 3.16 µM, first compound 0.1 µM
[27] = second compound 3.16 µM, first compound 0.316 µM
[28] = second compound 3.16 µM, first compound 1 µM
[29] = second compound 3.16 µM, first compound 3.16 µM
[30] = second compound 3.16 µM, first compound 10 µM
[31] = second compound 10 µM, first compound 0.0316 µM
[32] = second compound 10 µM, first compound 0.1 µM
[33] = second compound 10 µM, first compound 0.316 µM
[34] = second compound 10 µM, first compound 1 µM
[35] = second compound 10 µM, first compound 3.16 µM
[36] = second compound 10 µM, first compound 10 µM
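Further: spheroids exposed to the agents for seven days.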
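Wherever viability, T/C is given: percent of DMSO vehicle control viability which is 100%.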

SMILES: COc1cc(C2c3cc4c(cc3C(OC3OC5COC(C)OC5C(O)C3O)C3COC(=O)C23)OCO4)cc(OC)c1O (stereo not drawn) + Cc1[nH]c2ccc(F)cc2c1-c1nc2c3cccnc3c3ncccc3c2[nH]1
- IC50 (second compound 0.0316 µM): 446 nM
- IC50 (second compound 0.1 µM): 410 nM
- IC50 (second compound 0.316 µM): 429 nM
- IC50 (second compound 1 µM): 358 nM
- IC50 (second compound 3.16 µM): 158 nM
- IC50 (second compound 10 µM): 169 nM
- viability, T/C [1]: 88.3%
- viability, T/C [2]: 67.3%
- viability, T/C [3]: 52.6%
- viability, T/C [4]: 41.9%
- viability, T/C [5]: 40%
- viability, T/C [6]: 30.4%
- viability, T/C [7]: 87.8%
- viability, T/C [8]: 72.5%
- viability, T/C [9]: 50.1%
- viability, T/C [10]: 41.7%
- viability, T/C [11]: 39.2%
- viability, T/C [12]: 30.7%
- viability, T/C [13]: 85.5%
- viability, T/C [14]: 69.5%
- viability, T/C [15]: 51%
- viability, T/C [16]: 42.2%
- viability, T/C [17]: 38.3%
- viability, T/C [18]: 31.3%
- viability, T/C [19]: 86.5%
- viability, T/C [20]: 65.2%
- viability, T/C [21]: 51.6%
- viability, T/C [22]: 40.8%
- viability, T/C [23]: 36.1%
- viability, T/C [24]: 30.8%
- viability, T/C [25]: 64.2%
- viability, T/C [26]: 56.1%
- viability, T/C [27]: 41.7%
- viability, T/C [28]: 36.6%
- viability, T/C [29]: 37.3%
- viability, T/C [30]: 27.8%
- viability, T/C [31]: 65.5%
- viability, T/C [32]: 56.4%
- viability, T/C [33]: 41.8%
- viability, T/C [34]: 37.4%
- viability, T/C [35]: 33.4%
- viability, T/C [36]: 28.4%

SMILES: CC1COCCN1c1cc(C2(S(C)(=N)=O)CC2)nc(-c2ccnc3[nH]ccc23)n1 (stereo not drawn) + Cc1[nH]c2ccc(F)cc2c1-c1nc2c3cccnc3c3ncccc3c2[nH]1
- IC50 (second compound 0.0316 µM): 3460 nM
- IC50 (second compound 0.1 µM): 3070 nM
- IC50 (second compound 0.316 µM): 3550 nM
- IC50 (second compound 1 µM): 3240 nM
- IC50 (second compound 3.16 µM): 1290 nM
- IC50 (second compound 10 µM): 1380 nM
- viability, T/C [1]: 105%
- viability, T/C [2]: 96.1%
- viability, T/C [3]: 98.3%
- viability, T/C [4]: 73.9%
- viability, T/C [5]: 52.6%
- viability, T/C [6]: 33.8%
- viability, T/C [7]: 97.3%
- viability, T/C [8]: 99.9%
- viability, T/C [9]: 96.4%
- viability, T/C [10]: 78.5%
- viability, T/C [11]: 49.8%
- viability, T/C [12]: 33.2%
- viability, T/C [13]: 102%
- viability, T/C [14]: 97.5%
- viability, T/C [15]: 90.5%
- viability, T/C [16]: 81.6%
- viability, T/C [17]: 50.4%
- viability, T/C [18]: 33.5%
- viability, T/C [19]: 90.9%
- viability, T/C [20]: 92.8%
- viability, T/C [21]: 87.6%
- viability, T/C [22]: 73%
- viability, T/C [23]: 50.7%
- viability, T/C [24]: 34.3%
- viability, T/C [25]: 73.7%
- viability, T/C [26]: 76.4%
- viability, T/C [27]: 69.9%
- viability, T/C [28]: 52.6%
- viability, T/C [29]: 38.4%
- viability, T/C [30]: 30.3%
- viability, T/C [31]: 71.7%
- viability, T/C [32]: 71.5%
- viability, T/C [33]: 67%
- viability, T/C [34]: 54.7%
- viability, T/C [35]: 37.6%
- viability, T/C [36]: 27.2%

SMILES: CCCS(=O)(=O)Nc1ccc(F)c(C(=O)c2c[nH]c3ncc(-c4ccc(Cl)cc4)cc23)c1F + Cc1cnc(CNC(=O)c2c(=O)c3ccc(N4CCCN(C)CC4)nc3n3c2sc2ccccc23)cn1
- IC50 (second compound 0.0316 µM): 5340 nM
- IC50 (second compound 0.1 µM): 3830 nM
- IC50 (second compound 0.316 µM): 1460 nM
- IC50 (second compound 1 µM): < 31.6 nM
- IC50 (second compound 3.16 µM): < 31.6 nM
- IC50 (second compound 10 µM): < 31.6 nM
- viability, T/C [1]: 68.7%
- viability, T/C [2]: 67.6%
- viability, T/C [3]: 72.9%
- viability, T/C [4]: 77%
- viability, T/C [5]: 69.4%
- viability, T/C [6]: 26.3%
- viability, T/C [7]: 55.9%
- viability, T/C [8]: 53.1%
- viability, T/C [9]: 56.1%
- viability, T/C [10]: 58.1%
- viability, T/C [11]: 56.4%
- viability, T/C [12]: 20.7%
- viability, T/C [13]: 49%
- viability, T/C [14]: 53.3%
- viability, T/C [15]: 50.8%
- viability, T/C [16]: 54%
- viability, T/C [17]: 46.8%
- viability, T/C [18]: 19.3%
- viability, T/C [19]: 40.7%
- viability, T/C [20]: 43.6%
- viability, T/C [21]: 47.7%
- viability, T/C [22]: 47.3%
- viability, T/C [23]: 43.3%
- viability, T/C [24]: 13.6%
- viability, T/C [25]: 37.2%
- viability, T/C [26]: 37.1%
- viability, T/C [27]: 36.7%
- viability, T/C [28]: 40.3%
- viability, T/C [29]: 40.6%
- viability, T/C [30]: 7.26%
- viability, T/C [31]: 30.6%
- viability, T/C [32]: 33.1%
- viability, T/C [33]: 34%
- viability, T/C [34]: 35.9%
- viability, T/C [35]: 27.8%
- viability, T/C [36]: 0.18%

SMILES: CCc1c2c(nc3ccc(O)cc13)-c1cc3c(c(=O)n1C2)COC(=O)[C@]3(O)CC + Cc1cnc(CNC(=O)c2c(=O)c3ccc(N4CCCN(C)CC4)nc3n3c2sc2ccccc23)cn1
- IC50 (second compound 0.0316 µM): 1.6 nM
- IC50 (second compound 0.1 µM): < 0.999 nM
- IC50 (second compound 0.316 µM): < 0.999 nM
- IC50 (second compound 1 µM): < 0.999 nM
- IC50 (second compound 3.16 µM): < 0.999 nM
- IC50 (second compound 10 µM): < 0.999 nM
- viability, T/C (second compound 0.0316 µM, first compound 0.000999 µM): 57.4%
- viability, T/C (second compound 0.0316 µM, first compound 0.00316 µM): 38.5%
- viability, T/C (second compound 0.0316 µM, first compound 0.00999 µM): 32.5%
- viability, T/C [1]: 32.5%
- viability, T/C (second compound 0.0316 µM, first compound 0.0999 µM): 26.6%
- viability, T/C [3]: 24.4%
- viability, T/C (second compound 0.1 µM, first compound 0.000999 µM): 46.3%
- viability, T/C (second compound 0.1 µM, first compound 0.00316 µM): 36.2%
- viability, T/C (second compound 0.1 µM, first compound 0.00999 µM): 35.4%
- viability, T/C [7]: 32.4%
- viability, T/C (second compound 0.1 µM, first compound 0.0999 µM): 27.2%
- viability, T/C [9]: 25.2%
- viability, T/C (second compound 0.316 µM, first compound 0.000999 µM): 42.9%
- viability, T/C (second compound 0.316 µM, first compound 0.00316 µM): 37.9%
- viability, T/C (second compound 0.316 µM, first compound 0.00999 µM): 33.9%
- viability, T/C [13]: 31.2%
- viability, T/C (second compound 0.316 µM, first compound 0.0999 µM): 30%
- viability, T/C [15]: 26.8%
- viability, T/C (second compound 1 µM, first compound 0.000999 µM): 40.4%
- viability, T/C (second compound 1 µM, first compound 0.00316 µM): 35.3%
- viability, T/C (second compound 1 µM, first compound 0.00999 µM): 35.9%
- viability, T/C [19]: 30.2%
- viability, T/C (second compound 1 µM, first compound 0.0999 µM): 27.8%
- viability, T/C [21]: 18.7%
- viability, T/C (second compound 3.16 µM, first compound 0.000999 µM): 34%
- viability, T/C (second compound 3.16 µM, first compound 0.00316 µM): 31.9%
- viability, T/C (second compound 3.16 µM, first compound 0.00999 µM): 28.3%
- viability, T/C [25]: 27%
- viability, T/C (second compound 3.16 µM, first compound 0.0999 µM): 24.9%
- viability, T/C [27]: 13.4%
- viability, T/C (second compound 10 µM, first compound 0.000999 µM): 30.3%
- viability, T/C (second compound 10 µM, first compound 0.00316 µM): 28%
- viability, T/C (second compound 10 µM, first compound 0.00999 µM): 26.4%
- viability, T/C [31]: 27.8%
- viability, T/C (second compound 10 µM, first compound 0.0999 µM): 21.1%
- viability, T/C [33]: 0.26%
